Results from PubChem BioAssay (NCI).
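Exposure lasted 48 hours, with cells grown in 96-well plates and compounds tested at five concentrations. The concentration for full growth arrest is given as TGI.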

Tests used:
Test in all cases: NCI-60 cell line screen, 48 h
[1] = test system: SNB-19 CNS
[2] = test system: MDA-MB-435
[3] = test system: HCT-15 colon
[4] = test system: K-562 leukemia
[5] = test system: HS 578T breast
[6] = test system: MDA-MB-231 breast
[7] = test system: CCRF-CEM leukemia
[8] = test system: DU-145 prostate
[9] = test system: EKVX NSCLC
[10] = test system: SW-620 colon
[11] = test system: UACC-257 melanoma
[12] = test system: BT-549 breast
[13] = test system: NCI-H460 lung
[14] = test system: RPMI-8226 leukemia
[15] = test system: MOLT-4 leukemia
[16] = test system: SK-MEL-28 melanoma
[17] = test system: CAKI-1 renal
[18] = test system: SK-MEL-2 melanoma
[19] = test system: HCT-116 colon
[20] = test system: OVCAR-5 ovarian
[21] = test system: RXF 393 renal
[22] = test system: MDA-N
[23] = test system: 786-0 renal
[24] = test system: NCI-H23 lung
[25] = test system: SF-268 CNS
[26] = test system: MALME-3M melanoma
[27] = test system: LOX IMVI melanoma
[28] = test system: U251 CNS
[29] = test system: HCC-2998 colon
[30] = test system: OVCAR-8 ovarian
[31] = test system: HOP-62 NSCLC
[32] = test system: T-47D breast
[33] = test system: PC-3 prostate
[34] = test system: UACC-62 melanoma
[35] = test system: SN12C renal
[36] = test system: UO-31 renal
[37] = test system: TK-10 renal
[38] = test system: NCI-H522 lung
[39] = test system: OVCAR-4 ovarian
[40] = test system: SNB-75 CNS
[41] = test system: SF-295 CNS
[42] = test system: MCF7 breast
[43] = test system: A549 NSCLC
[44] = test system: OVCAR-3 ovarian
[45] = test system: SK-OV-3 ovarian
[46] = test system: ACHN renal
[47] = test system: HT29 colon
[48] = test system: NCI/ADR-RES ovarian
[49] = test system: M14 melanoma
[50] = test system: KM12 colon
[51] = test system: IGROV1 ovarian
[52] = test system: SR leukemia
[53] = test system: COLO 205 colon
[54] = test system: NCI-H226 lung
[55] = test system: SF-539 CNS
[56] = test system: A498 renal
[57] = test system: HOP-92 NSCLC
[58] = test system: HL-60(TB) leukemia
[59] = test system: SK-MEL-5 melanoma

O=c1ccc2c(Cl)sc(Cl)c2[nH]1
TGI [1]: > 100 µM
TGI [2]: > 100 µM
TGI [3]: > 100 µM
TGI [4]: > 100 µM
TGI [5]: > 100 µM
TGI [6]: > 100 µM
TGI [7]: > 100 µM
TGI [8]: > 100 µM
TGI [9]: > 100 µM
TGI [10]: > 100 µM
TGI [11]: > 100 µM
TGI [12]: > 100 µM
TGI [13]: > 100 µM
TGI [14]: > 100 µM
TGI [15]: > 100 µM
TGI [16]: > 100 µM
TGI [17]: > 100 µM
TGI [18]: > 100 µM
TGI [19]: > 100 µM
TGI [20]: > 100 µM
TGI [21]: > 100 µM
TGI [22]: > 100 µM
TGI [23]: > 100 µM
TGI [24]: > 100 µM
TGI [25]: > 100 µM
TGI [26]: > 100 µM
TGI [27]: > 100 µM
TGI [28]: > 100 µM
TGI [29]: > 100 µM
TGI [30]: > 100 µM
TGI [31]: > 100 µM
TGI [32]: > 100 µM
TGI [33]: > 100 µM
TGI [34]: > 100 µM
TGI [35]: > 100 µM
TGI [36]: > 100 µM
TGI [37]: > 100 µM
TGI [38]: > 100 µM
TGI [39]: > 100 µM
TGI [40]: > 100 µM
TGI [41]: > 100 µM
TGI [42]: > 100 µM
TGI [43]: > 100 µM
TGI [44]: > 100 µM
TGI [45]: > 100 µM
TGI [46]: > 100 µM
TGI [47]: > 100 µM
TGI [48]: > 100 µM
TGI [49]: > 100 µM
TGI [50]: > 100 µM
TGI [51]: > 100 µM

COC(=O)Cc1c(-c2c(CC(=O)OC)c3ccccc3n2C2OC(COC3OC(COC(C)=O)C(OC(C)=O)C(OC(C)=O)C3OC(C)=O)C(O)C(O)C2O)[nH]c2ccccc12 (centres undefined)
TGI [1]: 60 µM
TGI [2]: > 100 µM
TGI [3]: > 100 µM
TGI [4]: > 100 µM
TGI [52]: > 100 µM
TGI [6]: > 100 µM
TGI [7]: > 100 µM
TGI [8]: > 100 µM
TGI [9]: > 100 µM
TGI [10]: > 100 µM
TGI [11]: > 100 µM
TGI [53]: > 100 µM
TGI [54]: > 100 µM
TGI [12]: > 100 µM
TGI [13]: > 100 µM
TGI [14]: > 100 µM
TGI [15]: > 100 µM
TGI [16]: > 100 µM
TGI [17]: > 100 µM
TGI [18]: 64.7 µM
TGI [19]: > 100 µM
TGI [20]: > 100 µM
TGI [22]: > 100 µM
TGI [23]: > 100 µM
TGI [24]: > 100 µM
TGI [27]: > 100 µM
TGI [28]: > 100 µM
TGI [31]: 70.9 µM
TGI [55]: > 100 µM
TGI [32]: > 100 µM
TGI [33]: > 100 µM
TGI [34]: > 100 µM
TGI [35]: > 100 µM
TGI [56]: > 100 µM
TGI [36]: > 100 µM
TGI [37]: > 100 µM
TGI [57]: > 100 µM
TGI [41]: > 100 µM
TGI [42]: > 100 µM
TGI [58]: > 100 µM
TGI [43]: > 100 µM
TGI [44]: > 100 µM
TGI [45]: > 100 µM
TGI [46]: > 100 µM
TGI [47]: > 100 µM
TGI [49]: > 100 µM
TGI [59]: > 100 µM
TGI [51]: > 100 µM
